Assays:
[1] = test system: fowl roundworm (As. galli); assay: Anthelmintic test in chickens artificially infected with fowl roundworm, compound added to feed, E.P.G. and worm count up to 21st day (Test Examples A2, B2, C2, D2); assay type: in vivo, Ascaridia galli; conditions: Ascaridia galli, po, 504 h, chickens, worm count on 21st day, one value per chicken, read-out: Anthelmintic effect; for inhibition in vivo at 10 ppm: 10 ppm added to feed; for inhibition in vivo at 50 ppm: 50 ppm added to feed
Protocol: Chickens artificially infected with fowl roundworm (As. galli) were employed in groups each of two chickens.
Fecal matter testing was conducted before initiation of the test and on the 7th, 14th and 21st day after initiation of the test. Reduction in worm egg number was examined by calculating E.P.G. (worm eggs per 1 g of fecal matter), and the number of discharged worm bodies and the number of worm bodies remaining in the enteron when the chicken was killed on 21st day were counted to determine the anthelmintic percentage, from which the anthelmintic effect was judged.

[2] = test system: Liver fluke; Fasciola hepatica (F. hepatica); assay: Test of anthelmintic effect against rat infected experimentally with liver fluke (Test Examples A11, B11, C11, D11); assay type: in vivo; design: key to Presence or absence of fluke egg in fecal matter On 21st day after the last administration: +: indicates detection of fluke egg; -: indicates no detection; conditions: rats, 50 mg/Kg x 5 orally, one value per rat; for Condition of fluke body: autopsy, liver, "Denatured" = fluke body is alive but a part of fluke body has changed
Source text: Twenty-eight (28) rats were employed in fourteen groups each of two rats, each rat being infected with 5 metacercariae of Liver fluke; Fasciola he^patica (F.. hepatica) and confirmed to have worm eggs on the 75th day after infection according to fecal matter testing.
Judgement of the effect was made by the presence or absence of the worm gees in the fecal matter on the 21st day after the last administration and by examination according to autopsis as to whether the worm bodies were dead or alive in the liver.
The same as that in Test Example All, but eight (8) rats were employed by grouping them into groups each of two rats, each rat being infected with 5 metacercariae of liver fluke and confirmed to have fluke eggs on the 75th day after infection according to fecal matter testing.
The compounds provided for the tests were Compound Nos. Bl, B8 and B19.
The same as that in Test Example All, but six (6) rats were employed by grouping them into groups each of two rats, each rat being infected with 5 metacercariae of Fasciola hepatica and confirmed to have worm eggs on the 75th day after infection according to fecal matter testing.
The compounds provided for the tests were Compound Nos. C2 and C6.
The same as that in Test Example All, but the compounds provided for tests were Compound Nos. D14, D15 and D16.

[3] = test system: fowl roundworm (As. galli); assay: Anthelmintic test in chickens infected with fowl roundworm, single oral dose of 40 mg per Kg, worm bodies counted within 24 hours (Test Example E1); assay type: in vivo, Ascaridia galli; conditions: 40 mg per Kg oral in gelatin capsule; for inhibition in vivo at 40 mg/kg: Ascaridia galli, 24 h, chicken No.1, read-out: Anthelmintic effect after one day
Protocol: Chickens infected with fowl roundworm (As. galli) were employed in groups each consisting of five chickens. The compound provided for testing was orally administered in a quantity of 40 mg per Kg of body weight to each chicken in a gelatin capsule. The number of worm bodies discharged within 24 hours after administration of the medicine was counted. Then the chicken was killed, and the number of worm bodies remaining in the enteron was counted to determine the anthelmintic percentage, wherefrom the anthelmintic effect was judged.

[4] = test system: fowl roundworm (As. galli); assay: Anthelmintic test in chickens infected with fowl roundworm, compound added to feed at 250 ppm and 1,000 ppm, E.P.G. and worm count on 5th day (Test Example E2); assay type: in vivo, Ascaridia galli; conditions: for E.P.G. after 5 days: worm egg number in 1 g of fecal matter; for anthelmintic effect / inhibition in vivo at 250 ppm / inhibition in vivo at 1000 ppm: 5th day; for inhibition in vivo at 250 ppm / inhibition in vivo at 1000 ppm: Ascaridia galli, feed or water, 120 h, read-out: Anthelmintic effect
Protocol: Chickens infected with fowl roundworm (As. galli) were employed in groups each of two chickens.
The compound provided for the test was dissolved in a small amount of ethyl alcohol and adsorbed on defatted rice bran and added to chicken feed at levels of 250 ppm and 1,000 ppm. As control, a feed containing no such compound was employed.
Fecal matter testing was conducted before initiation of the test and on the 5th day after initiation of the test. The reduction in worm egg count was examined by calculating the E.P.G. (worm egg number in 1 g of fecal matter). The number of discharged worm bodies and the number of worm bodies remaining in the enteron when the chicken was killed on 5th day were counted to determined the anthelmintic percentage, from which the anthelmintic effect was judged.

[5] = 1000 ppm in feed, chicken No. 1
[6] = 1000 ppm in feed, chicken No. 2

Compound	inhibition in vivo at 10 ppm [1] [%]	inhibition in vivo at 50 ppm [1] [%]	Condition of fluke body [2]	Presence or absence of fluke egg in fecal matter On 21st day after the last administration [2]	Condition of fluke body ([2]; 50 mg/kg)	inhibition in vivo at 40 mg/kg [3] [%]	Anthelmintic effect after one day ([3]; chicken No.2)	Anthelmintic effect after one day ([3]; chicken No.3)	Anthelmintic effect after one day ([3]; chicken No.4)	Anthelmintic effect after one day ([3]; chicken No.5)	E.P.G. after 5 days ([4]; 250 ppm in feed, chicken No. 1)	anthelmintic effect ([4]; 250 ppm in feed, chicken No. 2)	E.P.G. after 5 days ([4]; 250 ppm in feed, chicken No. 2)	E.P.G. after 5 days [4, 5]	anthelmintic effect [4, 6]	E.P.G. after 5 days [4, 6]	inhibition in vivo at 250 ppm ([4]; 250 ppm in feed, chicken No. 1) [%]	inhibition in vivo at 1000 ppm [4, 5] [%]
C#CCN(OCC)C(C)=O [Compound A2, N-propargyl-N-acetyl-O-ethylhydroxylamine]	80 to 90	100	dead	-														
C#CCN(OCC=CC)C(C)=O [Compound A4, N-propargyl-N-acetyl-O-crotylhydroxylamine]	80 to 90	100	dead	-														
C#CCN(OCC=C)C(=O)CC [Compound A5, N-propargyl-N-propionyl-0-allylhydroxylamine]	80 to 90	100	dead	-														
C#CCN(OCC=C)C(=O)CCC [Compound A6, N-propargyl-N-butylyl-O-allylhydroxylamine]	100	100		-	dead and denatured													
C#CCN(OCC=C)C(=O)CCCC [Compound A7, N-propargyl-N-valeroyl-O-allylhydroxylamine]	80 to 90	100	dead	-														
C#CCN(OCC=C)C(=O)CCCCCCC/C=C\CCCCCCCC [Compound A8, N-propargyl-N-oleoyl-O-allylhydroxylamine]	100	100	dead	-														
C#CCN(OCC=C)C(=O)CCCCCCCCCCCCCCCCC [Compound A9, N-propargyl-N-stearoyl-N-allylhydroxylamine]	100	100	dead	-														
C#CCN(OCC=C)C(=O)c1ccccc1 [Compound A11, N-propargyl-N-benzoyl-O-allylhydroxylamine]	80 to 90	100	dead	-														
C#CCON(CC#C)C(=O)CCCCCCC/C=C\CCCCCCCC [Compound E6, N,O-dipropargyl-N-oleoylhydroxylamine]						100	+++ (100%)	+++ (100%)	+++ (100%)	+++ (100%)	0	+++ (100%)	0	0	+++ (100%)	0	100	100
C#CCON(CC#C)C(=O)c1ccccc1 [Compound E7, N,O-dipropargyl-N-benzoylhydroxylamine]						100	+++ (100%)	+++ (100%)	+++ (100%)	+++ (100%)	0	+++ (100%)	0	0	+++ (100%)	0	100	100
C#CCON(CC#C)C(=O)c1ccccc1Cl [Compound E8, N,O-dipropargyl-N-O-chlorobenzoylhydroxylamine]						100	+++ (100%)	+++ (100%)	+++ (100%)	+++ (100%)	0	+++ (100%)	0	0	+++ (100%)	0	100	100
C#CCON(C=O)CC#C [Compound E9, N,O-dipro- pargyl-N-formylhydroxylamine]						100	+++ (100%)	+++ (100%)	+++ (100%)	+++ (100%)	0	+++ (100%)	0	0	+++ (100%)	0	100	100
C#CCON(CC#C)C(=O)CCCCCCCCCCC [Compound E10, N,O-dipropargyl-N-lauroylhydroxylamine]						100	+++ (100%)	+++ (100%)	+++ (100%)	+++ (100%)	0	+++ (100%)	0	0	+++ (100%)	0	100	100
C#CCON(CC#C)C(=O)CCCCCCCCCCCCCCCCC [Compound E11, N,O-dipropargyl-N-stearoyl- hydroxylamine]						100	+++ (100%)	+++ (100%)	+++ (100%)	+++ (100%)	0	+++ (100%)	0	0	+++ (100%)	0	100	100

— patent EP0103895A2, “Novel hydroxylamine derivatives, production and use thereof” (MEIJI SEIKA KABUSHIKI KAISHA, priority 1982, dated 1984)
